Reference: patent US10603335B2, “Cancer treatment combination compositions, methods and uses” (Board of Supervisors of Louisiana State University and …, priority 2016, dated 2020)

How the values were obtained:
[1] = system: Panc-1 cells spheroids; assay: 3D spheroid growth (IncuCyte ZOOM), Panc-1; assay type: cell-based
Procedure: A protocol that enables the growth of identical size single cancer cell spheroids in Matrigel in 96 well plates has been developed.
(§1) Panc-1 and Mia-Paca-2 cells were grown in 10% FBS DMEM. Cells were collected after trypsinization and resuspended in phenol-red free DMEM with 10% FBS. Cells were labeled with CellTracker Red (Life Techmologies) for 5 minutes. After labeling cells were washed with PBS and transfer into 96-well Corning 7007 ULA round bottom plates at 1,000 cells/well in 100 μl phenol-red free media with 10% FBS and 5% Matrigel. […] Spheroids were grown at 37° C. and 5% CO2 in IncuCyte ZOOM (Essen Bioscience). Images were acquired every 4 h for a period of 120 h post-treatment and software analysis was design to identify the red object in the well. The data were expressed as fold increase in spheroids size at the end of the treatment using the “average red object area in the well” as determined by the IncuCyte software analysis. Reproducibility was confirmed in three independent experiments. Spheroids grew at a uniform rate (FIG. 1).

[2] = system: AsPC-1 spheroids; assay: 3D spheroid growth (IncuCyte ZOOM), AsPC-1; assay type: cell-based; conditions: gemcitabine 0.5, 1.0, 5.0 μM, LHRH-curcumin 10, 20 μM, 5 days
Procedure: as §1
Panc-1, Mia-Paca-2 and AsPC-1 spheroids were formed in 96-well round bottom plates as described. […] Media alone was used as control. The spheroids were grown for 5 days before quantification. Both gemcitabine and LHRH-curcumin were diluted in water.

[3] = system: Mia-PaCa-2 cancer cell xenografts; assay: Mia-PaCa-2 subcutaneous xenograft tumor growth; assay type: in vivo, SCID/bg mice; conditions: IP
Procedure: (§2) Male SCID/bg mice (5 weeks old; Taconic Biosciences, NY) were housed in the standard mouse Plexiglas cages in a room maintained at constant temperature and humidity under a 12 h light and darkness cycle. The experimental protocol was reviewed and approved by the Institutional Animal Care and Use Committee at the LSUHSC Shreveport.
Mia-PaCa-2 cells were harvested from cell cultures after trypsinization. The cells were washed once in serum-free medium and re-suspended in HBSS. Only suspensions consisting of single cells with >90% viability were used for the injections. Mice were injected s.c. on the right hind flank with 5×10^6 MIA-PaCa cells (ATCC, VA) in 50% Matrigel/HBSS with 26 Ga syringes.
(§3) The vehicle treated group received an equivalent amount of PBS. Tumor volumes were measured with calipers once a week and body weights of mice were measured once a week. Tumor volumes were calculated by the formula: V(mm3)=(length×width*2)/2, in which width was the shortest measurement in millimeters. Mice were necropsied 10 days after the last treatment for the low dose treatment (day 35 after the randomization and day 55 from the tumor cell implantation) or 2 days after the last treatment for high dose treatment (day 28 after the randomization and 48 from the tumor cell implantation). Tumors were dissected, weighed and photographed.

[4] = Body weight of tumor-bearing mice during treatment; conditions: IP
Procedure: as §2, §3

[5] = system: cleaved PARP, XIAP and cIAP2 in PATC53 cells; assay: Western blot of apoptosis markers, PATC53; assay type: cell-based
Procedure: PATC53 cells were treated as described and Western blot was perform in order to detect apoptosis markers (cleaved PARP) and inhibitors of apoptosis (XIAP and cIAP2) 24 h post-treatment. Actin was used as loading controls.
PATC53 cells were treated as presented and Western blot was perform in order to detect apoptosis markers (cleaved PARP) and inhibitors of apoptosis (XIAP and cIAP2) 48 h post-treatment. Actin was used as loading controls.
Pancreatic cancer cells were collected after trypsinization and seeded in 12-well plates for 24 h before treatments. Treatments were performed as described in the Figure legends. Following treatment whole-cell lysates were collected in Laemmli buffer and analyzed by Western blot. The following primary antibodies were used: cleaved PARP, c-IAP2, XIAP, cleaved Parp-1 (all from Cell Signaling), actin (Santa Cruz).

[6] = system: PATX55 tissue slices; assay: Live Tissue Sensitivity Assay (LTSA), PATX55; assay type: cell-based; conditions: 72 hours
Procedure: (§4) Animal experiment protocol was reviewed and approved by The University of Texas MD Anderson Cancer Center (Houston, Tex.) institutional review board and in accordance with the Guidelines for the Care and Use of Laboratory Animals published by the National Institutes of Health. PDXs were grown from cryopreserved early passages of PDXs in nude mice as described in previous publications (Kim M P, et al, Nat Protoc 2009; 4(11): 1670-80). Briefly, tumor samples stored in CryoStor™ CS10 storage medium were recovered and cut into about 2 mm3 fragments, soaked in Matrigel, and implanted into the subcutaneous space of Balb/c nude mice (5 mice/PDX). Tumors were harvested when they reach 1.5 cm in diameter for generating tissue slices for drug testing with quadruplicates.
(§5) About 100 tissue slices were produced from 1 tumorgraft with tissue slicer and arrayed in 96-well plates with previously established method (Roife D, et al, Clin Cancer Res 2016). […] Same volume of medium with 0.1% DMSO was added into control wells. After 72 hours, tissue viabilities were measured with PrestoBlue method. Viability inhibition will be calculated through normalization of viabilities of tissue slices treated with inhibitor against the viability of control (DMSO treated) slices. Inhibition of viability was further analyzed with t-test. […]

[7] = system: PATX153 tissue slices; assay: Live Tissue Sensitivity Assay (LTSA), PATX153; assay type: cell-based; conditions: 72 hours
Procedure: as §4, §5

[8] = system: PATX113 tissue slices; assay: Live Tissue Sensitivity Assay (LTSA), PATX113; assay type: cell-based; conditions: 72 hours
Procedure: as §4, §5

[9] = system: PATX112 tissue slices; assay: Live Tissue Sensitivity Assay (LTSA), PATX112; assay type: cell-based; conditions: 72 hours
Procedure: as §4, §5

[10] = system: PATX110 tissue slices; assay: Live Tissue Sensitivity Assay (LTSA), PATX110; assay type: cell-based; conditions: 72 hours
Procedure: as §4, §5

[11] = system: PATX148 tissue slices; assay: Live Tissue Sensitivity Assay (LTSA), PATX148; assay type: cell-based; conditions: 72 hours
Procedure: as §4, §5

[12] = gemcitabine 0.5, 1.0, 5.0 μM, LHRH-curcumin 10, 20 μM, 5 days
[13] = high doses: gemcitabine 100 mg/kg once a week, LHRH-curcumin 40 mg/kg twice a week, day 48
[14] = low doses: gemcitabine 50 mg/kg once a week, LHRH-curcumin 20 mg/kg twice a week, day 55
[15] = high doses: gemcitabine 100 mg/kg once a week, LHRH-curcumin 40 mg/kg twice a week
[16] = low doses: gemcitabine 50 mg/kg once a week, LHRH-curcumin 20 mg/kg twice a week

COc1cc(/C=C/C(=O)CC(=O)/C=C/c2ccc(OC(=O)CCCC(=O)NCCCC[C@@H](NC(=O)[C@H](Cc3ccc(O)cc3)NC(=O)[C@H](CO)NC(=O)[C@H](Cc3c[nH]c4ccccc34)NC(=O)[C@H](Cc3c[nH]cn3)NC(=O)[C@@H]3CCC(=O)N3)C(=O)N[C@@H](CC(C)C)C(=O)N[C@@H](CCCNC(=N)N)C(=O)N3CCC[C@H]3C(=O)NCC(N)=O)c(OC)c2)ccc1O [LHRH-curcumin, [DLys6]-LHRH-Curcumin]
effectiveness on spheroids growth versus curcumin ([1]; 3D culture, 10, 20 and 30 μM, 120 h): more effective than curcumin | size of the spheroids ([1]; 10, 20 and 30 μM, 120 h post-treatment): significantly decreased the size of the spheroids formed by Panc-1 cells in a dose-dependent manner | spheroids growth ([1]; LHRH 30 μM, LHRH-curcumin 30 μM): superior to that of LHRH | size of the spheroids [1, 12]: decrease the size of the spheroids | size of the spheroids [2]: decrease the size of the spheroids | Tumor volume at necropsy [3, 13]: significantly reduced | Tumor volume at necropsy [3, 14]: significantly reduced | body weight or body condition [4, 15]: does not negatively impact body weight or body condition | body weight or body condition [4, 16]: does not negatively impact body weight or body condition | apoptosis inhibitors (XIAP and cIAP2) ([5]; 48 h post-treatment, 30 μM): Modest reduction of apoptosis inhibitors | Sensitivity To LHRH-C ([6]; single agent): Sensitive (The tissue was defined as sensitive to the treatment if both p<0.05 and at least 30% of tissue slice viability on average was inhibited) | Sensitivity To LHRH-C ([7]; single agent): Sensitive (The tissue was defined as sensitive to the treatment if both p<0.05 and at least 30% of tissue slice viability on average was inhibited) | Sensitivity To LHRH-C ([8]; single agent): Sensitive (The tissue was defined as sensitive to the treatment if both p<0.05 and at least 30% of tissue slice viability on average was inhibited) | Sensitivity To LHRH-C ([9]; single agent): Sensitive (The tissue was defined as sensitive to the treatment if both p<0.05 and at least 30% of tissue slice viability on average was inhibited) | Sensitivity To LHRH-C ([10]; single agent): Sensitive (The tissue was defined as sensitive to the treatment if both p<0.05 and at least 30% of tissue slice viability on average was inhibited) | Sensitivity To LHRH-C ([11]; single agent): Resistant

Nc1ccn([C@@H]2O[C@H](CO)[C@@H](O)C2(F)F)c(=O)n1 [gemcitabine, 2′,2′-difluoro 2′deoxycytidine, reference compound]
size of the spheroids [1, 12]: decrease the size of the spheroids | size of the spheroids [2]: decrease the size of the spheroids | Tumor volume at necropsy [3, 13]: significantly reduced | Tumor volume at necropsy [3, 14]: significantly reduced | body weight or body condition [4, 15]: does not negatively impact body weight or body condition | body weight or body condition [4, 16]: does not negatively impact body weight or body condition | response of PATC53 cells (apoptosis markers) ([5]; 24 h post-treatment): resistance | tissue slice viability ([6]; Gem 10 μM): 95.45 | tissue slice viability ([7]; Gem 10 μM): 96.86 | tissue slice viability ([8]; Gem 10 μM): 82.19 | tissue slice viability ([9]; Gem 10 μM): 91.71 | tissue slice viability ([10]; Gem 10 μM): 100.20 | tissue slice viability ([11]; Gem 10 μM): 99.55
